Test systems include NCI/ADR-RES; NCI-H460; HCC 2998; HOP-62; TK-10; MDA-MB-435; SF-268; HL-60; DU-145; OVCAR-3; SF-539; OVCAR-4; SK-OV-3; UACC-257; OVCAR-5; HCT-15; KM12.
Common to all, as to assay: NCI anticancer screen, dose series, 48 h

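Assay format: 96-well plates, 48-hour exposure. At the GI50, growth is halved.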 The source made the active and inactive calls. No stated cut-off is given here; in the data, active = GI50 up to about 1.1 µM and inactive = higher. Where only a bound is given, the exact number is not on record here.

Take `Cc1nc2ccccc2c(=O)n1NC(=O)c1ccccc1[N+](=O)[O-]`: the GI50 in the assay with NCI/ADR-RES, with NCI-H460, with HCC 2998, with HOP-62, with TK-10 and in the assay on MDA-MB-435 was > 100 µM (inactive) throughout. In addition, the GI50 with SF-268, in the assay with HL-60, with DU-145, in the assay on OVCAR-3, with SF-539 and in the assay with OVCAR-4 was > 100 µM (inactive) throughout. The GI50 was > 100 µM (inactive) in the assay on SK-OV-3; > 100 µM (inactive) in the assay on UACC-257; > 100 µM (inactive) with OVCAR-5; > 100 µM in the assay on HCT-15; > 100 µM (inactive) with KM12.
Regarding `COC(=O)C1=C(OC(=O)/C(=C/c2ccccc2)c2ccccc2)C(C(=O)OC)[C@@]2(O)[C@@H](C(=O)OC)[C@H](C)C[C@@H]1[C@@H]2C(=O)OC` (some centres not stated), the GI50 in the assay with NCI/ADR-RES, with NCI-H460, in the assay on HCC 2998, in the assay with HOP-62, in the assay on TK-10 and with MDA-MB-435 was > 100 µM (inactive) throughout. The GI50 in the assay with SF-268, in the assay with HL-60, with DU-145, in the assay on OVCAR-3, in the assay with SF-539 and in the assay with OVCAR-4 was > 100 µM (inactive) each time. Further, the GI50 in the assay with SK-OV-3 is > 100 µM (inactive); in the assay with UACC-257 it was > 100 µM (inactive); in the assay with OVCAR-5, > 100 µM (inactive); in the assay on HCT-15, > 100 µM; in the assay with KM12 it was > 100 µM (inactive).
With `CCCCCCC1OC23OC1CCC2C(O)CCC3O` (configuration not stated), the GI50 in the assay with NCI/ADR-RES, in the assay with NCI-H460, with HCC 2998, in the assay on HOP-62, in the assay with TK-10 and with MDA-MB-435 was > 100 µM (inactive) throughout. For the same compound, the GI50 with SF-268, with HL-60, in the assay with DU-145, with OVCAR-3, with SF-539 and in the assay with OVCAR-4 was > 100 µM (inactive) in each case. Further, the GI50 in the assay on UACC-257 is > 100 µM (inactive); in the assay on OVCAR-5, > 100 µM (inactive); in the assay on HCT-15, > 100 µM; in the assay with KM12, > 100 µM (inactive).
With `O=C1OCC(c2ccc(Cl)cc2)=C1Cl`, the GI50 in the assay with NCI/ADR-RES is 26.9 µM (inactive); with NCI-H460 it was 17.8 µM (inactive); in the assay on HCC 2998, 29 µM (inactive); in the assay with HOP-62 it was 22.9 µM (inactive); in the assay with TK-10 it was 28.3 µM (inactive); in the assay on MDA-MB-435, 33.2 µM (inactive). The GI50 with SF-268 was 21.1 µM (inactive); with HL-60, 19.8 µM (inactive); in the assay on DU-145 it was 49.5 µM (inactive); in the assay with OVCAR-3, 20.7 µM (inactive); in the assay on SF-539, 38 µM (inactive); with OVCAR-4, 44.8 µM (inactive). Further, the GI50 with SK-OV-3 is > 100 µM (inactive); in the assay with UACC-257 it was 40 µM (inactive); in the assay on OVCAR-5 it was 22.3 µM (inactive); in the assay on HCT-15 it was 29.9 µM; in the assay on KM12 it was 15.4 µM (inactive).

Source of the values: ChEMBL document CHEMBL1201862, “PubChem BioAssay data set” (2004).
